Series [1] relates to M. tuberculosis H37Rv. In kind it is cell-based, Mycobacterium tuberculosis.
A further series has as its system M. tuberculosis. Briefly: metabolomics: intramycobacterial accumulation and metabolism. In kind it is cell-based, Mycobacterium tuberculosis. Particulars: dose-dependent.
For series [2] the following is noted: Middlebrook 7H9 media supplemented with albumin, dextrose, and saline.
Series [3] concerns M. tuberculosis H37Rv. Particulars: cited from earlier work.
The target of series [4] is enoyl acyl-carrier protein reductase (InhA). To be noted: InhA enzymatic activity; cited from earlier work.

Each structure is given as a SMILES string. Values after ≈ are worked out from the molar mass of the structure shown. Like-named read-outs stand apart in the source and are kept apart here.

By MIC is commonly meant the lowest concentration that inhibits growth of the organism. The term IC50 denotes the point on the concentration scale where inhibition reaches its midpoint.

With `CCOC(=O)CSc1nc(N)c2c3c(sc2n1)CC(C(C)(C)C)CC3` (stereo not drawn) [CD117], the minimal inhibitory concentration (MIC) in the series with M. tuberculosis H37Rv [1] was 0.39 µg/mL (≈ 1.03 µM); in the series on M. tuberculosis H37Rv [3] (M. tuberculosis H37Rv lab strain, previously reported), 0.39 µg/mL; in the series on M. tuberculosis H37Rv [3] (M. tuberculosis H37Rv, 0.39 μg/mL expressed in μM) it was 1.0 µM. Further, the “permeation of the M. tuberculosis cell wall” value in the series on M. tuberculosis was “permeate the M. tuberculosis cell wall”. Moreover, the “stability in growth media” value in series [2] is recorded as “stable”. Further, in series [4], the IC50 is 34 ± 6 µM.

The values are drawn from paper PMC4527344 (Tetrahedron letters, 2015).
